For assay [1], the system named is Escherichia coli. Briefly: Ratio of EC50 for Escherichia coli JM109 transformed with empty vector PQE30 to EC50 for Escherichia coli JM109 transformed with Entamoeba histolytica NTR1. The assay is classed as functional.
Assay [2] relates to Escherichia coli. Briefly: Antimicrobial activity against Escherichia coli JM109 transformed with Trichomonas vaginalis nim1 after 16 hrs. The assay is classed as functional, organism-based. Particulars: JM109, JM 109, 16 h.
Assay [3] has as its system Escherichia coli. Briefly: Ratio of EC50 for Escherichia coli JM109 transformed with empty vector PQE30 to EC50 for Escherichia coli JM109 transformed with Entamoeba histolytica NTR2. The assay is classed as functional.
For assay [4], the system named is Escherichia coli. Briefly: Antimicrobial activity against Escherichia coli JM109 transformed with Entamoeba histolytica nim1 after 16 hrs. The class given is functional, organism-based. The following applies: JM109, JM 109, 16 h.
Assay [5] concerns Escherichia coli. Briefly: Antimicrobial activity against Escherichia coli JM109 transformed with Entamoeba histolytica NTR2 after 16 hrs. The class given is functional, organism-based. The following applies: JM109, JM 109, 16 h.
The test system of assay [6] is Entamoeba histolytica. Briefly: Activity of Entamoeba histolytica NTR3 at 50 uM.
For assay [7], the system named is Entamoeba histolytica. Briefly: Activity of Entamoeba histolytica NTR2 at 50 uM.
The test system of the next assay is Trichomonas vaginalis. Briefly: Activity of Trichomonas vaginalis NTR8 at 50 uM.
The test system of assay [8] is Escherichia coli. Briefly: Ratio of EC50 for Escherichia coli JM109 transformed with empty vector PQE30 to EC50 for Escherichia coli JM109 transformed with Trichomonas vaginalis nim1. The assay is classed as functional.
A further assay concerns Giardia duodenalis. Briefly: Activity of Giardia lamblia NTR at 50 uM.
The subject of assay [9] is Escherichia coli. Briefly: Antimicrobial activity against Escherichia coli JM109 transformed with Entamoeba histolytica NTR1 after 16 hrs. The class given is functional, organism-based. The following applies: JM109, JM 109, 16 h.
Assay [10] deals with Entamoeba histolytica. Briefly: Activity of Entamoeba histolytica NIM1.
The subject of assay [11] is Entamoeba histolytica. Briefly: Activity of Entamoeba histolytica NTR1 at 50 uM.
Assay [12] concerns Escherichia coli. Briefly: Ratio of EC50 for Escherichia coli JM109 transformed with empty vector PQE30 to EC50 for Escherichia coli JM109 transformed with Entamoeba histolytica nim1. The assay is classed as functional.
Assay [13] deals with Escherichia coli. Briefly: Antimicrobial activity against Escherichia coli JM109 transformed with empty vector PQE30 after 16 hrs. The assay is classed as functional, organism-based. Particulars: JM109, JM 109, 16 h.

SMILES strings stand for the structures. Converted amounts (≈) assume the structure as drawn.

For orientation: EC50 means the concentration that produces a half-maximal response. Read a low EC50 as a more potent agent. A word on the Km: it is the concentration of substrate that gives half-maximal velocity. Broadly, the Vmax is the rate approached at saturating substrate. Regarding `Cc1ncc([N+](=O)[O-])n1CCO` [METRONIDAZOLE], the “Ratio EC50” value in the assay on Escherichia coli [1] was 3; with Escherichia coli [3] it was 3; in the assay with Escherichia coli [8], 20; with Escherichia coli [12], 30. Also, the EC50 was found to be 500 µg/mL (≈ 2920 µM) with Escherichia coli [2]; 750 µg/mL (≈ 4380 µM) in the assay on Escherichia coli [4]; 8 µg/mL (≈ 46.7 µM) in the assay with Escherichia coli [5]; 7 µg/mL (≈ 40.9 µM) with Escherichia coli [9]; 25 µg/mL (≈ 146 µM) in the assay with Escherichia coli [13]. The Km was found to be 0.083 µM with Entamoeba histolytica [6]; 0.081 µM in the assay with Entamoeba histolytica [7]; 0.078 µM in the assay on Trichomonas vaginalis; 0.206 µM with Giardia duodenalis; 0.067 µM in the assay on Entamoeba histolytica [11]. The Vmax is 0.014 µmol/min in the assay on Entamoeba histolytica [6]; 0.031 µmol/min in the assay on Entamoeba histolytica [7]; 0.329 µmol/min with Trichomonas vaginalis; 0.347 µmol/min in the assay with Giardia duodenalis; 0.057 µmol/min in the assay on Entamoeba histolytica [10]; 0.027 µmol/min with Entamoeba histolytica [11].

(Values after ChEMBL document CHEMBL1649121, “Giardia, Entamoeba, and Trichomonas enzymes activate metronidazole (nitroreductases) and inactivate metronidazole (nitroimidazole reductases)” (Antimicrob Agents Chemother, 2009).)
